From ChEMBL document CHEMBL1909046, “DrugMatrix in vitro pharmacology data”

Tests used:
[1] = molecular target: Carbonic anhydrase 2 (Homo sapiens, UniProt P00918); experiment: DRUGMATRIX: Carbonic Anhydrase II enzyme inhibition (substrate: 4-Nitrophenyl acetate (4-NPA)); assay type: tissue-based, Erythrocyte; settings: erythrocyte; Not Active = under 50% inhibition at 10 µM
[2] = molecular target: T1, Cholecystokinin receptor type A (Homo sapiens, UniProt P32238); assay type: cell membranes, Membrane; settings: 1321-n1; note: in other assays of this panel Not Active means under 50% inhibition at 10 µM
T1 sequence (P32238 whole entry): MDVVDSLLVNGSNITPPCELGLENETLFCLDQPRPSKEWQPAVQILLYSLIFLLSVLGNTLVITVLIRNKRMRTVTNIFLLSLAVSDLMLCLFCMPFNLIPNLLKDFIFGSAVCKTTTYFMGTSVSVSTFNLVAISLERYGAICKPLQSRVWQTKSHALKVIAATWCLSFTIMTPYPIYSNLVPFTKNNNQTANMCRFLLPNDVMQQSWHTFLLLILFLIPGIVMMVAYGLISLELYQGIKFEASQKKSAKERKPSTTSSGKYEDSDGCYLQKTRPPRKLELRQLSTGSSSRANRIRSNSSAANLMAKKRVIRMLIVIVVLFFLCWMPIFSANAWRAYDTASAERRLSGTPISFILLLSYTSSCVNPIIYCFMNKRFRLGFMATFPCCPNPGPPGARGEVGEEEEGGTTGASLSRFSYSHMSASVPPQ

[3] = molecular target: Tyrosine-protein kinase Fyn (Homo sapiens, UniProt P06241); experiment: biochemical; assay type: cell-based, Insect cells;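 note: enzymatic inhibition of Fyn kinase activity measured with Poly(Glu:Tyr) as the phosphorylation substrate; in other assays of this panel Not Active means under 50% inhibition at 10 µM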
Chain of Tyrosine-protein kinase Fyn (P06241 whole entry): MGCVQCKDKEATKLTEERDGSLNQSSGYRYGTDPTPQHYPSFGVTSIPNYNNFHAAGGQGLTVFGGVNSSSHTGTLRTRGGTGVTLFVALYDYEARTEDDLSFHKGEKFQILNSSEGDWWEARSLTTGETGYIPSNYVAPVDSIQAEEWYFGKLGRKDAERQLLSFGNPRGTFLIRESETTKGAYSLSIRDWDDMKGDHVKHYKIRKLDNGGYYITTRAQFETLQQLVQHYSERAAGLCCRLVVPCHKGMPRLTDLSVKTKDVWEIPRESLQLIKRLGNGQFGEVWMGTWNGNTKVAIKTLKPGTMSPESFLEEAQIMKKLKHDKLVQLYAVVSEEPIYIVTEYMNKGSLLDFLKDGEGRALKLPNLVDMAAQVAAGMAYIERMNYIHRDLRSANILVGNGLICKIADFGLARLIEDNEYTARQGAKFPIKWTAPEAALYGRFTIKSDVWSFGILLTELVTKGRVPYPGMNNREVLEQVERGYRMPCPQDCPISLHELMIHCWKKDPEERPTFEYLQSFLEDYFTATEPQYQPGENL

[4] = molecular target: Mitogen-activated protein kinase 14 (Homo sapiens, UniProt Q16539); design: species or system Escherichia coli;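 note: inhibition of p38alpha enzyme activity in a biochemical kinase assay, with myelin basic protein serving as substrate; in other assays of this panel Not Active means under 50% inhibition at 10 µM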
Chain of Mitogen-activated protein kinase 14 (Q16539 whole entry): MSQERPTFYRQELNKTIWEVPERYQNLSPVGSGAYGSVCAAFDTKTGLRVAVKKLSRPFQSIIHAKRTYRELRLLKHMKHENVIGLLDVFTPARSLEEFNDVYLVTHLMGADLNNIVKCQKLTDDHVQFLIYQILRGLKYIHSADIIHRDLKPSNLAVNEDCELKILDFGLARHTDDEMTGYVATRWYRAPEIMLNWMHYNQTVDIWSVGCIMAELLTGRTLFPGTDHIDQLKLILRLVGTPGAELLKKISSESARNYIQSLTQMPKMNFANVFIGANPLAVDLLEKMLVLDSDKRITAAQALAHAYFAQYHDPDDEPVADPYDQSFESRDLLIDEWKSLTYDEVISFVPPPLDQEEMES

[5] = molecular target: T2, Muscarinic acetylcholine receptor M5 (Homo sapiens, UniProt P08912); assay type: cell membranes, CHO-K1, Membrane; note: in other assays of this panel Not Active means under 50% inhibition at 10 µM
T2 sequence (P08912 whole entry): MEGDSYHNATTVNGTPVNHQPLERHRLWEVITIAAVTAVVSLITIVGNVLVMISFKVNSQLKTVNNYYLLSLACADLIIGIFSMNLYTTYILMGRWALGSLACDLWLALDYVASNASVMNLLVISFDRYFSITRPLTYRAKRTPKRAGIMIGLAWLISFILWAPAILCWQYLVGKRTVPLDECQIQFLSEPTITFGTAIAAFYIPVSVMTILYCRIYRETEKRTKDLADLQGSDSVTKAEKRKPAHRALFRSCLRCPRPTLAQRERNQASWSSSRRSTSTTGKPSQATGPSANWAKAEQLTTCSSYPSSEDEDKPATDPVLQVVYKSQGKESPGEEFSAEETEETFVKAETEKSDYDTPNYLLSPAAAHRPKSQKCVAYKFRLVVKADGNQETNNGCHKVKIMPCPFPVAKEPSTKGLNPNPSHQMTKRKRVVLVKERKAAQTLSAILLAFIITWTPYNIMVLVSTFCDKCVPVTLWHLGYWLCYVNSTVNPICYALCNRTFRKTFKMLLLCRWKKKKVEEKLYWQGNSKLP

[6] = molecular target: Aldo-keto reductase family 1 member B1 (Rattus norvegicus, UniProt P07943); experiment: biochemical; assay type: tissue-based, Lens of camera-type eye

Compound | IC50 [1] | IC50 [2] | IC50 ([3]; insect cells) | IC50 [4] | IC50 ([5]; cho-k1) | IC50 [6] | also measured
CCCCC(=O)N(Cc1ccc(-c2ccccc2-c2nnn[nH]2)cc1)[C@H](C(=O)O)C(C)C | Not Active | Not Active | Not Active | Not Active | Not Active | Not Active | –
O=C(O)COc1ccc(C(=O)c2cccs2)c(Cl)c1Cl | Not Active | Not Active | Not Active | Not Active | Not Active | – | IC50 ([6]; read-out: IC50): 3.21 µM
CN1[C@@H]2CC[C@H]1C[C@@H](OC(c1ccccc1)c1ccccc1)C2 [BENZTROPINE] | Not Active | Not Active | Not Active | Not Active | – | Not Active | –
C[C@@](Cc1ccc(O)c(O)c1)(NN)C(=O)O.O [CARBIDOPA] | Not Active | Not Active | – | Not Active | Not Active | Not Active | IC50 ([3]; read-out: IC50): 3.73 µM
CN1CCN(C2=Nc3cc(Cl)ccc3Nc3ccccc32)CC1 [CLOZAPINE] | Not Active | Not Active | Not Active | Not Active | – | Not Active | –
CC(C)NC[C@@H](O)COc1cccc2ccccc12 [DEXPROPRANOLOL] | Not Active | Not Active | Not Active | Not Active | Not Active | Not Active | –
CC(C)NC[C@H](O)COc1cccc2ccccc12 [LEVOPROPRANOLOL] | Not Active | Not Active | Not Active | Not Active | Not Active | Not Active | –
O=C(O)CCCCC1CCSS1 (stereo not drawn) [LIPOIC ACID, ALPHA] | Not Active | Not Active | Not Active | Not Active | Not Active | Not Active | –
CN(C)C(=O)C(CCN1CCC(O)(c2ccc(Cl)cc2)CC1)(c1ccccc1)c1ccccc1 [LOPERAMIDE] | Not Active | Not Active | Not Active | Not Active | Not Active | Not Active | –
Clc1ccc(COC(Cn2ccnc2)c2ccc(Cl)cc2Cl)c(Cl)c1 (stereo not given) [MICONAZOLE] | Not Active | Not Active | – | Not Active | Not Active | Not Active | IC50 ([3]; read-out: IC50): 4.16 µM
Oc1ccc2c3c1O[C@H]1[C@@H](O)CC[C@@]4(O)[C@@H](C2)N(CC2CCC2)CC[C@]314 [NALBUPHINE] | Not Active | Not Active | Not Active | Not Active | Not Active | Not Active | –
C[C@]12C=CC(=O)C=C1CC[C@@H]1[C@@H]2C(=O)C[C@@]2(C)[C@H]1CC[C@]2(O)C(=O)CO [PREDNISONE] | Not Active | Not Active | Not Active | Not Active | Not Active | Not Active | –
OCCOCCN1CCN(C2=Nc3ccccc3Sc3ccccc32)CC1 [QUETIAPINE] | Not Active | Not Active | Not Active | Not Active | – | Not Active | –
COC(=O)[C@H]1[C@H]2C[C@@H]3c4[nH]c5cc(OC)ccc5c4CCN3C[C@H]2C[C@@H](OC(=O)c2cc(OC)c(OC)c(OC)c2)[C@@H]1OC [RESERPINE] | Not Active | Not Active | Not Active | Not Active | Not Active | Not Active | –
O=C(O)c1ccccc1O [SALICYLIC ACID] | Not Active | Not Active | Not Active | Not Active | Not Active | Not Active | –
C[S+]([O-])c1ccc(-c2nc(-c3ccncc3)c(-c3ccc(F)cc3)[nH]2)cc1 (stereo not given) [SB-203580] | Not Active | Not Active | – | – | Not Active | Not Active | –
CC1CCC(NC(=O)N(CCCl)N=O)CC1 (stereo not given) [SEMUSTINE] | Not Active | Not Active | Not Active | Not Active | Not Active | Not Active | –
O=C1C[C@@H]2OCC=C3CN4CC[C@]56c7ccccc7N1[C@H]5[C@H]2[C@H]3C[C@H]46 [STRYCHNINE] | Not Active | Not Active | Not Active | Not Active | Not Active | Not Active | –
C[N+](C)(C)CCOC(=O)CCC(=O)OCC[N+](C)(C)C.[Cl-].[Cl-] [SUCCINYLCHOLINE CHLORIDE] | Not Active | Not Active | Not Active | Not Active | Not Active | Not Active | –
Nc1ccc(S(=O)(=O)NC(=O)c2ccccc2)cc1 [SULFABENZAMIDE] | Not Active | Not Active | Not Active | Not Active | Not Active | Not Active | –
CCCCCCCCNC(C)C(O)c1ccc(SC(C)C)cc1 (stereo not given) [SULOCTIDIL] | Not Active | Not Active | – | Not Active | – | Not Active | IC50 ([3]; read-out: IC50): 0.722 µM; IC50 ([5]; read-out: IC50): 4.49 µM; Ki ([5]; read-out: Ki): 3.22 µM
O=c1[nH]c(=O)n(C2CCCO2)cc1F (stereo not given) [TEGAFUR] | Not Active | Not Active | Not Active | Not Active | Not Active | Not Active | –
CC(=N)S [THIOACETAMIDE] | Not Active | Not Active | Not Active | Not Active | Not Active | Not Active | –
Cc1ccc(C(=O)c2ccc(CC(=O)O)n2C)cc1 [TOLMETIN] | Not Active | Not Active | Not Active | Not Active | Not Active | – | IC50 ([6]; read-out: IC50): 2.15 µM
CC(=O)OCC(COC(C)=O)OC(C)=O [TRIACETIN] | Not Active | Not Active | Not Active | Not Active | Not Active | Not Active | –
CN1CCN(CCCN2c3ccccc3Sc3ccc(C(F)(F)F)cc32)CC1 [TRIFLUOPERAZINE] | Not Active | Not Active | Not Active | Not Active | Not Active | Not Active | –
TRANSPLATIN | Not Active | Not Active | – | Not Active | – | Not Active | Ki [1]: Not Active; Ki [2]: Not Active; IC50 ([3]; insect cells, read-out: IC50): 0.565 µM; Ki [4]: Not Active; IC50 ([5]; cho-k1, read-out: IC50): 5.93 µM; Ki ([5]; cho-k1, read-out: Ki): 4.26 µM; Ki [6]: Not Active
ZIRCONIUM(IV) CHLORIDE | Not Active | Not Active | Not Active | Not Active | Not Active | Not Active | Ki [1]: Not Active; Ki [2]: Not Active; Ki ([3]; insect cells): Not Active; Ki [4]: Not Active; Ki ([5]; cho-k1): Not Active; Ki [6]: Not Active
